Like-named read-outs stand apart in the source and are kept apart here.
Target: GST-Bc1-2 (Homo sapiens, UniProt P10415)
Test: Time Resolved-Fluorescence Resonance Energy Transfer (TR-FRET) Bcl-2 binding assay with F-Bak peptide probe
[1] = GST-Bcl-2 1 nM, F-Bak probe 100 nM, Tb-anti-GST 1 nM, '<' = below limit of detection, read-out: TR-FRET Bcl-2 Binding Ki

GST-Bc1-2, sequence (P10415 whole entry): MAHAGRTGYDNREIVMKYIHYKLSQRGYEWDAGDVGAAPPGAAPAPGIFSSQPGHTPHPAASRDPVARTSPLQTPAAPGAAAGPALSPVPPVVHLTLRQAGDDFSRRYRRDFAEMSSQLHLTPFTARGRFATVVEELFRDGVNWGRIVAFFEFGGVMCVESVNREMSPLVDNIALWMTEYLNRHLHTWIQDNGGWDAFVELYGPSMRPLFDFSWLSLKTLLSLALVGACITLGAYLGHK

Structure (SMILES) | Ki [1] | Ki (Table 4, selected compounds of Ser. No. 12/631,404, read-out: Bcl-2 FRET Ki) | Ki (Table 5, direct comparison Z=N vs Z=C analogs, read-out: Bcl-2 FRET ki)
CC1(C)CC(c2ccc(Cl)cc2)=C(CN2CCN(c3ccc(C(=O)NS(=O)(=O)c4ccc(NCC5CCOCC5)c([N+](=O)[O-])c4)c(Oc4ccc5[nH]ccc5c4)c3)CC2)CO1 [Example 23, 4-(4-{[4-(4-chlorophenyl)-6,6-dimethyl-5,6-dihydro-2H-pyran-3-yl]methyl}piperazin-1-yl)-2-(1H-indol-5-yloxy)-N-({3-nitro-4-[(tetrahydro-2H-pyran-4-ylmethyl)amino]phenyl}sulfonyl)benzamide] | 83 pM | 83 pM | 83 pM
CC1(C)CCC(CN2CCN(c3ccc(C(=O)NS(=O)(=O)c4ccc(OCC5CCOCC5)c([N+](=O)[O-])c4)c(Oc4cnc5[nH]ccc5c4)c3)CC2)=C(c2ccc(Cl)cc2)C1 [Example 24, 4-(4-{[2-(4-chlorophenyl)-4,4-dimethylcyclohex-1-en-1-yl]methyl}piperazin-1-yl)-N-{[3-nitro-4-(tetrahydro-2H-pyran-4-ylmethoxy)phenyl]sulfonyl}-2-(1H-pyrrolo[2,3-b]pyridin-5-yloxy)benzamide] | < 10 pM | – | –
CC1(C)CCC(CN2CCN(c3ccc(C(=O)NS(=O)(=O)c4ccc(NCC5COCCO5)c([N+](=O)[O-])c4)c(Oc4cnc5[nH]ccc5c4)c3)CC2)=C(c2ccc(Cl)cc2)C1 (stereo not drawn) [Example 25, 4-(4-{[2-(4-chlorophenyl)-4,4-dimethylcyclohex-1-en-1-yl]methyl}piperazin-1-yl)-N-({4-[(1,4-dioxan-2-ylmethyl)amino]-3-nitrophenyl}sulfonyl)-2-(1H-pyrrolo[2,3-b]pyridin-5-yloxy)benzamide] | < 10 pM | – | –
CC1(C)CCC(CN2CCN(c3ccc(C(=O)NS(=O)(=O)c4ccc(NCC(F)(F)F)c([N+](=O)[O-])c4)c(Oc4cnc5[nH]ccc5c4)c3)CC2)=C(c2ccc(Cl)cc2)C1 [Example 26, 4-(4-{[2-(4-chlorophenyl)-4,4-dimethylcyclohex-1-en-1-yl]methyl}piperazin-1-yl)-N-({3-nitro-4-[(2,2,2-trifluoroethyl)amino]phenyl}sulfonyl)-2-(1H-pyrrolo[2,3-b]pyridin-5-yloxy)benzamide] | 11 pM | – | –
CC1(C)CCC(CN2CCN(c3ccc(C(=O)NS(=O)(=O)c4ccc(NCCC(F)(F)F)c([N+](=O)[O-])c4)c(Oc4cnc5[nH]ccc5c4)c3)CC2)=C(c2ccc(Cl)cc2)C1 [Example 27, 4-(4-{[2-(4-chlorophenyl)-4,4-dimethylcyclohex-1-en-1-yl]methyl}piperazin-1-yl)-N-({3-nitro-4-[(3,3,3-trifluoropropyl)amino]phenyl}sulfonyl)-2-(1H-pyrrolo[2,3-b]pyridin-5-yloxy)benzamide] | 134 pM | – | –
CC1(C)CCC(CN2CCN(c3ccc(C(=O)NS(=O)(=O)c4ccc(OC[C@@H]5COCCO5)c([N+](=O)[O-])c4)c(Oc4cnc5[nH]ccc5c4)c3)CC2)=C(c2ccc(Cl)cc2)C1 [Example 28, 4-(4-{[2-(4-chlorophenyl)-4,4-dimethylcyclohex-1-en-1-yl]methyl}piperazin-1-yl)-N-({4-[(2S)-1,4-dioxan-2-ylmethoxy]-3-nitrophenyl}sulfonyl)-2-(1H-pyrrolo[2,3-b]pyridin-5-yloxy)benzamide] | < 10 pM | – | –
CO[C@H]1CC[C@@H](CNc2ccc(S(=O)(=O)NC(=O)c3ccc(N4CCN(CC5=C(c6ccc(Cl)cc6)CC(C)(C)CC5)CC4)cc3Oc3cnc4[nH]ccc4c3)cc2[N+](=O)[O-])CC1 [Example 29, Cis-4-(4-{[2-(4-chlorophenyl)-4,4-dimethylcyclohex-1-en-1-yl]methyl}piperazin-1-yl)-N-[(4-{[(4-methoxycyclohexyl)methyl]amino}-3-nitrophenyl)sulfonyl]-2-(1H-pyrrolo[2,3-b]pyridin-5-yloxy)benzamide] | < 10 pM | – | –
CC1(C)CCC(CN2CCN(c3ccc(C(=O)NS(=O)(=O)c4ccc(OC[C@H]5COCCO5)c([N+](=O)[O-])c4)c(Oc4cnc5[nH]ccc5c4)c3)CC2)=C(c2ccc(Cl)cc2)C1 [Example 30, 4-(4-{[2-(4-chlorophenyl)-4,4-dimethylcyclohex-1-en-1-yl]methyl}piperazin-1-yl)-N-({4-[(2R)-1,4-dioxan-2-ylmethoxy]-3-nitrophenyl}sulfonyl)-2-(1H-pyrrolo[2,3-b]pyridin-5-yloxy)benzamide] | < 10 pM | – | –
CC1(C)CC(c2ccc(Cl)cc2)=C(CN2CCN(c3ccc(C(=O)NS(=O)(=O)c4ccc(NCC5COCCO5)c([N+](=O)[O-])c4)c(Oc4cnc5[nH]ccc5c4)c3)CC2)CO1 (stereo not drawn) [Example 31, 4-(4-{[4-(4-chlorophenyl)-6,6-dimethyl-5,6-dihydro-2H-pyran-3-yl]methyl}piperazin-1-yl)-N-({4-[(1,4-dioxan-2-ylmethyl)amino]-3-nitrophenyl}sulfonyl)-2-(1H-pyrrolo[2,3-b]pyridin-5-yloxy)benzamide] | < 10 pM | – | –
CC1(C)CC(c2ccc(Cl)cc2)=C(CN2CCN(c3ccc(C(=O)NS(=O)(=O)c4ccc(OCC5COCCO5)c([N+](=O)[O-])c4)c(Oc4cnc5[nH]ccc5c4)c3)CC2)CO1 (stereo not drawn) [Example 32, 4-(4-{[4-(4-chlorophenyl)-6,6-dimethyl-5,6-dihydro-2H-pyran-3-yl]methyl}piperazin-1-yl)-N-{[4-(1,4-dioxan-2-ylmethoxy)-3-nitrophenyl]sulfonyl}-2-(1H-pyrrolo[2,3-b]pyridin-5-yloxy)benzamide] | < 10 pM | – | –
CC1(C)CC(c2ccc(Cl)cc2)=C(CN2CCN(c3ccc(C(=O)NS(=O)(=O)c4ccc(N[C@H]5CC[C@H](N6CCOCC6)CC5)c([N+](=O)[O-])c4)c(Oc4cnc5[nH]ccc5c4)c3)CC2)CO1 [Example 33, Trans-4-(4-{[4-(4-chlorophenyl)-6,6-dimethyl-5,6-dihydro-2H-pyran-3-yl]methyl}piperazin-1-yl)-N-({4-[(4-morpholin-4-ylcyclohexyl)amino]-3-nitrophenyl}sulfonyl)-2-(1H-pyrrolo[2,3-b]pyridin-5-yloxy)benzamide] | < 10 pM | – | –
CO[C@H]1CC[C@H](CNc2ccc(S(=O)(=O)NC(=O)c3ccc(N4CCN(CC5=C(c6ccc(Cl)cc6)CC(C)(C)CC5)CC4)cc3Oc3cnc4[nH]ccc4c3)cc2[N+](=O)[O-])CC1 [Example 34, Trans-4-(4-{[2-(4-chlorophenyl)-4,4-dimethylcyclohex-1-en-1-yl]methyl}piperazin-1-yl)-N-[(4-{[(4-methoxycyclohexyl)methyl]amino}-3-nitrophenyl)sulfonyl]-2-(1H-pyrrolo[2,3-b]pyridin-5-yloxy)benzamide] | 10 pM | – | –
CC1(C)CC(c2ccc(Cl)cc2)=C(CN2CCN(c3ccc(C(=O)NS(=O)(=O)c4cnc(OCC5CCOCC5)c(C#N)c4)c(Oc4cnc5[nH]ccc5c4)c3)CC2)CO1 [Example 35, 4-(4-{[4-(4-chlorophenyl)-6,6-dimethyl-5,6-dihydro-2H-pyran-3-yl]methyl}piperazin-1-yl)-N-{[5-cyano-6-(tetrahydro-2H-pyran-4-ylmethoxy)pyridin-3-yl]sulfonyl}-2-(1H-pyrrolo[2,3-b]pyridin-5-yloxy)benzamide] | < 10 pM | – | –
CC1(C)CCC(CN2CCN(c3ccc(C(=O)NS(=O)(=O)c4cnc(OCC5CCOCC5)c(C#N)c4)c(Oc4cnc5[nH]ccc5c4)c3)CC2)=C(c2ccc(Cl)cc2)C1 [Example 36, 4-(4-{[2-(4-chlorophenyl)-4,4-dimethylcyclohex-1-en-1-yl]methyl}piperazin-1-yl)-N-{[5-cyano-6-(tetrahydro-2H-pyran-4-ylmethoxy)pyridin-3-yl]sulfonyl}-2-(1H-pyrrolo[2,3-b]pyridin-5-yloxy)benzamide] | 17 pM | – | –
CC1(C)CCC(CN2CCN(c3ccc(C(=O)NS(=O)(=O)c4ccc(OCC5(F)CCOCC5)c([N+](=O)[O-])c4)c(Oc4cnc5[nH]ccc5c4)c3)CC2)=C(c2ccc(Cl)cc2)C1 [Example 37, 4-(4-{[2-(4-chlorophenyl)-4,4-dimethylcyclohex-1-en-1-yl]methyl}piperazin-1-yl)-N-({4-[(4-fluorotetrahydro-2H-pyran-4-yl)methoxy]-3-nitrophenyl}sulfonyl)-2-(1H-pyrrolo[2,3-b]pyridin-5-yloxy)benzamide] | < 10 pM | – | –
CC1(C)CCC(CN2CCN(c3ccc(C(=O)NS(=O)(=O)c4ccc(OCC5CCOCC5)c(C(N)=O)c4)c(Oc4cnc5[nH]ccc5c4)c3)CC2)=C(c2ccc(Cl)cc2)C1 [Example 38, N-{[3-(aminocarbonyl)-4-(tetrahydro-2H-pyran-4-ylmethoxy)phenyl]sulfonyl}-4-(4-{[2-(4-chlorophenyl)-4,4-dimethylcyclohex-1-en-1-yl]methyl}piperazin-1-yl)-2-(1H-pyrrolo[2,3-b]pyridin-5-yloxy)benzamide] | 300 pM | – | –
CC1(C)CCC(CN2CCN(c3ccc(C(=O)NS(=O)(=O)c4ccc(N[C@H]5CC[C@@H](N6CCOCC6)CC5)c([N+](=O)[O-])c4)c(Oc4cnc5[nH]ccc5c4)c3)CC2)=C(c2ccc(Cl)cc2)C1 [Example 39, Cis-4-(4-{[2-(4-chlorophenyl)-4,4-dimethylcyclohex-1-en-1-yl]methyl}piperazin-1-yl)-N-({4-[(4-morpholin-4-ylcyclohexyl)amino]-3-nitrophenyl}sulfonyl)-2-(1H-pyrrolo[2,3-b]pyridin-5-yloxy)benzamide] | 12 pM | – | –
CC1(C)CCC(CN2CCN(c3ccc(C(=O)NS(=O)(=O)c4cnc(OCC5CCOCC5)c(Cl)c4)c(Oc4cnc5[nH]ccc5c4)c3)CC2)=C(c2ccc(Cl)cc2)C1 [Example 40, 4-(4-{[2-(4-chlorophenyl)-4,4-dimethylcyclohex-1-en-1-yl]methyl}piperazin-1-yl)-N-{[5-chloro-6-(tetrahydro-2H-pyran-4-ylmethoxy)pyridin-3-yl]sulfonyl}-2-(1H-pyrrolo[2,3-b]pyridin-5-yloxy)benzamide] | < 10 pM | – | –
CC1(C)CC(c2ccc(Cl)cc2)=C(CN2CCN(c3ccc(C(=O)NS(=O)(=O)c4cnc(OCC5CCOCC5)c(Cl)c4)c(Oc4cnc5[nH]ccc5c4)c3)CC2)CO1 [Example 41, 4-(4-{[4-(4-chlorophenyl)-6,6-dimethyl-5,6-dihydro-2H-pyran-3-yl]methyl}piperazin-1-yl)-N-{[5-chloro-6-(tetrahydro-2H-pyran-4-ylmethoxy)pyridin-3-yl]sulfonyl}-2-(1H-pyrrolo[2,3-b]pyridin-5-yloxy)benzamide] | < 10 pM | – | –

From patent publication US8580794B2 (AbbVie Inc., priority 2009, dated 2013)
